Data on nine compounds can be found in US8530667B2, “Herbicides” (Syngenta Limited, priority 2007, dated 2013).

What all share (format): in vivo
The subject of test [1] is Alopecurus myosuroides (ALOMY). The test can be described thus: Example A pre-emergence herbicidal activity, glasshouse pot test. The note with it: evaluated 19 or 20 days later, read-out: Pre-Emergence Activity ALOMY (100=total damage to plant; 0=no damage to plant); for pest or weed control at 500 g/ha: Rate 500 g/ha; for pest or weed control at 250 g/ha: Rate 250 g/ha. Here is the method:
(§1) Seeds of a variety of test species were sown in standard soil in pots. After cultivation for one day (pre-emergence) or after 10 days cultivation (post-emergence) under controlled conditions in a glasshouse, the plants were sprayed with an aqueous spray solution derived from the formulation of the technical active ingredient in 0.6 ml acetone and 45 ml formulation solution containing 10.6% Emulsogen EL (Registry number 61791-12-6), 42.2% N-methylpyrrolidone, 42.2% dipropylene glycol monomethyl ether (Registry number 34590-94-8) and 0.2% X-77 (Registry number 11097-66-8). The test plants were then grown in a greenhouse under optimum conditions until, 14 or 15 days later for post-emergence and 19 or 20 days for pre-emergence, the test was evaluated (100=total damage to plant; 0=no damage to plant). Alopecurus myosuroides (ALOMY), Avena fatua (AVEFA), Lolium perenne (LOLPE), Setaria faberi (SETFA), Digitaria sanguinalis (DIGSA), Echinochloa crus-galli (ECHCG)

Test [2] relates to Avena fatua (AVEFA). The description is as above. The following applies: evaluated 19 or 20 days later, read-out: Pre-Emergence Activity AVEFA (100=total damage to plant; 0=no damage to plant); for pest or weed control at 500 g/ha: Rate 500 g/ha; for pest or weed control at 250 g/ha: Rate 250 g/ha. Here is the method: as §1
Test [3] concerns Digitaria sanguinalis (DIGSA). The test is described as above. The note with it: evaluated 19 or 20 days later, read-out: Pre-Emergence Activity DIGSA (100=total damage to plant; 0=no damage to plant); for pest or weed control at 500 g/ha: Rate 500 g/ha; for pest or weed control at 250 g/ha: Rate 250 g/ha. Here is the method: as §1
Test [4] relates to Echinochloa crus-galli (ECHCG). The description is as above. The note with it: evaluated 19 or 20 days later, read-out: Pre-Emergence Activity ECHCG (100=total damage to plant; 0=no damage to plant); for pest or weed control at 500 g/ha: Rate 500 g/ha; for pest or weed control at 250 g/ha: Rate 250 g/ha. How it is done:
as §1

The test system of test [5] is Lolium perenne (LOLPE). Described as above. The note with it: evaluated 19 or 20 days later, read-out: Pre-Emergence Activity LOLPE (100=total damage to plant; 0=no damage to plant); for pest or weed control at 500 g/ha: Rate 500 g/ha; for pest or weed control at 250 g/ha: Rate 250 g/ha. How it is done:
as §1

In test [6] the test system is Setaria faberi (SETFA). The description is as above. The note with it: evaluated 19 or 20 days later, read-out: Pre-Emergence Activity SETFA (100=total damage to plant; 0=no damage to plant); for pest or weed control at 500 g/ha: Rate 500 g/ha; for pest or weed control at 250 g/ha: Rate 250 g/ha. Here is the method:
as §1

Test [7] deals with Alopecurus myosuroides (ALOMY). The test can be described thus: Example A post-emergence herbicidal activity, glasshouse pot test. The following applies: Rate 125 g/ha, evaluated 14 or 15 days later, read-out: Post-Emergence Activity ALOMY (100=total damage to plant; 0=no damage to plant). Here is the method:
as §1

In test [8] the test system is Avena fatua (AVEFA). The description is as above. The following applies: Rate 125 g/ha, evaluated 14 or 15 days later, read-out: Post-Emergence Activity AVEFA (100=total damage to plant; 0=no damage to plant). How it is done: as §1
Test [9] has as its system Digitaria sanguinalis (DIGSA). Described as above. The following applies: Rate 125 g/ha, evaluated 14 or 15 days later, read-out: Post-Emergence Activity DIGSA (100=total damage to plant; 0=no damage to plant). How it is done: as §1
In test [10] the test system is Echinochloa crus-galli (ECHCG). The test is described as above. The following applies: Rate 125 g/ha, evaluated 14 or 15 days later, read-out: Post-Emergence Activity ECHCG (100=total damage to plant; 0=no damage to plant). Here is the method:
as §1

Test [11] has as its system Lolium perenne (LOLPE). The description is as above. The note with it: Rate 125 g/ha, evaluated 14 or 15 days later, read-out: Post-Emergence Activity LOLPE (100=total damage to plant; 0=no damage to plant). How it is done: as §1
Test [12] concerns Setaria faberi (SETFA). The description is as above. The following applies: Rate 125 g/ha, evaluated 14 or 15 days later, read-out: Post-Emergence Activity SETFA (100=total damage to plant; 0=no damage to plant). Here is the method: as §1

Consider `Cc1sc(Br)cc1C1C(=O)[C@@H]2[C@H](C1=O)[C@H]1CC[C@@H]2O1` (stereo partly drawn) [Compound T5], for which the pest or weed control at 500 g/ha is 0% in test [1]; 20% in the test with Avena fatua (AVEFA) [2]; 0% in [3]; 0% in [4]; 0% with Lolium perenne (LOLPE) [5]; 0% in the test on Setaria faberi (SETFA) [6]. Moreover, the pest or weed control at 125 g/ha in test [7] came out at 10%; in the test with Avena fatua (AVEFA) [8], 10%; in test [9], 30%; in test [10], 0%; in the test on Lolium perenne (LOLPE) [11], 0%; in the test on Setaria faberi (SETFA) [12], 10%.
Regarding `Cc1sc(-c2ccccn2)cc1C1C(=O)[C@@H]2[C@H](C1=O)[C@H]1CC[C@@H]2O1` (stereo partly drawn) [Compound T6], the pest or weed control at 500 g/ha is 0% in test [1]; 60% with Avena fatua (AVEFA) [2]; 0% in [3]; 0% in test [4]; 0% in the test with Lolium perenne (LOLPE) [5]; 0% in the test on Setaria faberi (SETFA) [6]. Also, the pest or weed control at 125 g/ha turned out to be 10% in [7]; 10% with Avena fatua (AVEFA) [8]; 20% in test [9]; 30% in test [10]; 10% in the test on Lolium perenne (LOLPE) [11]; 40% with Setaria faberi (SETFA) [12].
As for `Cc1nc(-c2cc(C3C(=O)[C@@H]4[C@H](C3=O)[C@H]3CC[C@@H]4O3)c(C)s2)cs1` (stereo partly drawn) [Compound T7], the pest or weed control at 500 g/ha in [1] is 10%; with Avena fatua (AVEFA) [2], 10%; in test [3], 20%; in [4] it was 0%; in the test with Lolium perenne (LOLPE) [5], 10%; in the test on Setaria faberi (SETFA) [6] it was 0%. Further, the pest or weed control at 125 g/ha stood at 0% in [7]; 0% in the test with Avena fatua (AVEFA) [8]; 0% in [9]; 50% in test [10]; 0% in the test with Lolium perenne (LOLPE) [11]; 0% with Setaria faberi (SETFA) [12].
Regarding `Cc1csc(C)c1C1C(=O)[C@@H]2[C@H](C1=O)[C@H]1CC[C@@H]2O1` (stereo partly drawn) [Compound T10], the pest or weed control at 250 g/ha turned out to be 10% in [1]; 10% in the test on Avena fatua (AVEFA) [2]; 30% in test [3]; 30% in [4]; 20% in the test with Lolium perenne (LOLPE) [5]; 0% in the test with Setaria faberi (SETFA) [6]. Besides, the pest or weed control at 125 g/ha in test [7] was found to be 10%; with Avena fatua (AVEFA) [8], 40%; in [9] it was 40%; in test [10], 60%; in the test with Lolium perenne (LOLPE) [11] it was 20%; with Setaria faberi (SETFA) [12] it was 60%.
`Cc1sc(-c2ccc(Cl)cc2)cc1C1C(=O)[C@@H]2[C@H](C1=O)[C@H]1CC[C@@H]2O1` (stereo partly drawn) [Compound T12]: the pest or weed control at 500 g/ha in test [1] is 10%; in the test on Avena fatua (AVEFA) [2] it was 20%; in [3], 0%; in [4] it was 30%; in the test on Lolium perenne (LOLPE) [5], 10%; in the test with Setaria faberi (SETFA) [6], 20%. Besides, the pest or weed control at 125 g/ha in test [7] amounted to 80%; in the test on Avena fatua (AVEFA) [8] it was 80%; in [9], 80%; in test [10], 80%; with Lolium perenne (LOLPE) [11] it was 30%; in the test on Setaria faberi (SETFA) [12] it was 70%.
As to `CCc1c(Br)sc(C)c1C1C(=O)[C@@H]2[C@H](C1=O)[C@H]1CC[C@@H]2O1` (stereo partly drawn) [Compound T14, 4-(5-bromo-4-ethyl-2-methyl-thiophen-3-yl)-10-oxa-tricyclo[5.2.1.0*2,6*]decane-3,5-dione], the pest or weed control at 250 g/ha in test [1] was 90%; with Avena fatua (AVEFA) [2], 60%; in [3], 70%; in test [4], 90%; with Lolium perenne (LOLPE) [5] it was 100%; in the test with Setaria faberi (SETFA) [6], 100%. The pest or weed control at 125 g/ha in test [7] is 90%; in the test on Avena fatua (AVEFA) [8], 100%; in test [9] it was 60%; in [10], 100%; with Lolium perenne (LOLPE) [11], 80%; in the test with Setaria faberi (SETFA) [12], 80%.
`CCc1csc(CC)c1C1C(=O)[C@@H]2[C@H](C1=O)[C@H]1CC[C@@H]2O1` (stereo partly drawn) [Compound T15]: the pest or weed control at 250 g/ha in [1] was 70%; with Avena fatua (AVEFA) [2], 10%; in test [3], 30%; in [4], 90%; with Lolium perenne (LOLPE) [5] it was 10%; with Setaria faberi (SETFA) [6] it was 20%. Also, the pest or weed control at 125 g/ha was 50% in test [7]; 40% in the test with Avena fatua (AVEFA) [8]; 40% in test [9]; 90% in [10]; 40% in the test with Lolium perenne (LOLPE) [11]; 70% with Setaria faberi (SETFA) [12].
Take `Cc1sc(-c2ccc(Cl)cc2)nc1C1C(=O)[C@@H]2[C@H](C1=O)[C@H]1CC[C@@H]2O1` (stereo partly drawn) [Compound T22]: the pest or weed control at 250 g/ha (in [1]; in the test on Avena fatua (AVEFA) [2]; in [3]; in [4]; in the test with Lolium perenne (LOLPE) [5]; with Setaria faberi (SETFA) [6]) was 100% throughout. In addition, the pest or weed control at 125 g/ha in [7] was found to be 70%; in the test with Avena fatua (AVEFA) [8] it was 70%; in test [9] it was 100%; in test [10], 100%; in the test with Lolium perenne (LOLPE) [11] it was 20%; in the test on Setaria faberi (SETFA) [12], 60%.
As to `CCc1sc(-c2ccc(Cl)cc2)nc1C1C(=O)[C@@H]2[C@H](C1=O)[C@H]1CC[C@@H]2O1` (stereo partly drawn) [Compound T23, 4-[2-(4-chloro-phenyl)-5-ethyl-thiazol-4-yl]-10-oxa-tricyclo[5.2.1.0*2,6*]decane-3,5-dione], the pest or weed control at 500 g/ha in test [1] was 100%; in the test on Avena fatua (AVEFA) [2], 90%; in [3], 100%; in test [4], 100%; in the test on Lolium perenne (LOLPE) [5] it was 90%; in the test on Setaria faberi (SETFA) [6] it was 100%. The pest or weed control at 125 g/ha (in test [7]; with Avena fatua (AVEFA) [8]; in test [9]; in [10]; with Lolium perenne (LOLPE) [11]; with Setaria faberi (SETFA) [12]) was 100% in each case.
